Experimental data published in US10765114B2, “4-amino-6-(pyridyl and 2-substitutedphenyl)-picolinates and 6-amino-2-(pyridyl and 2-substitutedphenyl)-pyrimidine-4-carboxylates and their use as herbicides” (Dow AgroSciences LLC, priority 2013, dated 2020).
Read-outs that look alike come from different tables or passages of the source.

What was measured:
[1] = test system: Key Grass and Sedge Weeds as well as Grass Crops; test: Post-Emergent Test II (Table 6); assay type: in vivo; conditions: post-emergence, 336 h, 14 days after application; for pest or weed control at 54.5 g/ha: 54.5 g ai/ha; for pest or weed control at 109 g/ha: 109 g ai/ha
Outline: (§1)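 Seedlings are raised 7-21 days in Metro-Mix 360 (pH 6.0-6.8) under greenhouse conditions, then sprayed at the first or second true leaf stage. Application is 187 L/ha, with serial rates down to 1/16× of the highest. Plants are subirrigated, and percent injury is rated visually after 14 days.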

[2] = test system: Key Broadleaf Weed and Crop Species; test: Post-Emergent Test II (Table 5); assay type: in vivo; conditions: post-emergence, 336 h; for pest or weed control at 54.5 g/ha: application rate 54.5 (kg ai/ha; footnote: g ai/ha); for pest or weed control at 109 g/ha: application rate 109 (kg ai/ha; footnote: g ai/ha)
Outline: as §1

[3] = DIGSA: crabgrass (Digitaria sanguinalis), read-out: Visual Growth Reduction (%) 14 Days After Application DIGSA
[4] = ECHSS, read-out: Visual Growth Reduction (%) 14 Days After Application ECHSS
[5] = ORYSS (crop), read-out: Visual Growth Reduction (%) 14 Days After Application ORYSS
[6] = SETFA: giant foxtail (Setaria faberi), read-out: Visual Growth Reduction (%) 14 Days After Application SETFA
[7] = SORVU: grain sorghum (Sorghum vulgare), read-out: Visual Growth Reduction (%) 14 Days After Application SORVU
[8] = TRZSS (crop), read-out: Visual Growth Reduction (%) 14 Days After Application TRZSS
[9] = ZEAMX: maize, corn (Zea mays), read-out: Visual Growth Reduction (%) 14 Days After Application ZEAMX
[10] = Abutilon theophrasti, ABUTH: velvetleaf (Abutilon theophrasti), read-out: Visual Growth Reduction (%) 14 Days After Application ABUTH
[11] = Amaranthus retroflexus, AMARE: redroot pigweed (Amaranthus retroflexus), read-out: Visual Growth Reduction (%) 14 Days After Application AMARE
[12] = Brassica napus, BRSSS: oilseed rape, canola (Brassica napus), read-out: Visual Growth Reduction (%) 14 Days After Application BRSSS
[13] = Chenopodium album, CHEAL: lambsquarters (Chenopodium album), read-out: Visual Growth Reduction (%) 14 Days After Application CHEAL
[14] = Euphorbia heterophylla, EPHHL: wild poinsettia (Euphorbia heterophylla), read-out: Visual Growth Reduction (%) 14 Days After Application EPHHL
[15] = Helianthus annuus, HELAN: sunflower (Helianthus annuus), read-out: Visual Growth Reduction (%) 14 Days After Application HELAN
[16] = Viola tricolor, VIOTR: wild pansy (Viola tricolor), read-out: Visual Growth Reduction (%) 14 Days After Application VIOTR

`COC(=O)c1nc(-c2ccc(Cl)c(F)c2SC)c(F)c(N)c1Cl` [Compound 18] gave a pest or weed control at 54.5 g/ha ([1]; CYPSS, read-out: Visual Growth Reduction (%) 14 Days After Application CYPSS) of 95 to 100%, a pest or weed control at 54.5 g/ha [1, 3] of 0 to 29% and a pest or weed control at 109 g/ha [1, 3] of 0 to 29%. For the same molecule, the pest or weed control at 54.5 g/ha [1, 4] was 0 to 29%, the pest or weed control at 109 g/ha [1, 4] was 0 to 29% and the pest or weed control at 54.5 g/ha [1, 5] was 0 to 29%. It also gave a pest or weed control at 109 g/ha [1, 5] of 0 to 29%, a pest or weed control at 54.5 g/ha [1, 6] of 0 to 29% and a pest or weed control at 109 g/ha [1, 6] of 0 to 29%. The pest or weed control at 54.5 g/ha [1, 7] was 0 to 29%, the pest or weed control at 109 g/ha [1, 7] was 0 to 29% and the pest or weed control at 54.5 g/ha [1, 8] was 0 to 29%. The pest or weed control at 109 g/ha [1, 8] was 0 to 29%, the pest or weed control at 54.5 g/ha [1, 9] was 0 to 29% and the pest or weed control at 109 g/ha [1, 9] was 0 to 29%. It also gave a pest or weed control at 54.5 g/ha [2, 10] of 60 to 74%, a pest or weed control at 109 g/ha [2, 10] of 60 to 74% and a pest or weed control at 54.5 g/ha [2, 11] of 75 to 84%. The pest or weed control at 109 g/ha [2, 11] was 95 to 100%, the pest or weed control at 54.5 g/ha [2, 12] was 0 to 29% and the pest or weed control at 109 g/ha [2, 12] was 0 to 29%. The pest or weed control at 54.5 g/ha [2, 13] was 85 to 94%, the pest or weed control at 109 g/ha [2, 13] was 85 to 94% and the pest or weed control at 54.5 g/ha [2, 14] was 0 to 29%. The pest or weed control at 109 g/ha [2, 14] was 0 to 29%, the pest or weed control at 54.5 g/ha [2, 15] was 75 to 84% and the pest or weed control at 109 g/ha [2, 15] was 75 to 84%. The pest or weed control at 54.5 g/ha [2, 16] was 0 to 29% and the pest or weed control at 109 g/ha [2, 16] was 0 to 29%.
